Data published in patent US7625894B2, “Pyrrolo[2,3-d]Pyrimidines as Protein Tyrosine Kinase Inhibitors” (Novartis AG, priority 2004, dated 2009).

Biological target: T1, c-Abl (Homo sapiens, UniProt P00519)
T1 construct: The His-tagged kinase domain of c-Abl is cloned and expressed in the baculovirus/Sf9 system; His; made in house; host or cells: baculovirus/Sf9
T1 sequence (P00519 242-493 limits assumed): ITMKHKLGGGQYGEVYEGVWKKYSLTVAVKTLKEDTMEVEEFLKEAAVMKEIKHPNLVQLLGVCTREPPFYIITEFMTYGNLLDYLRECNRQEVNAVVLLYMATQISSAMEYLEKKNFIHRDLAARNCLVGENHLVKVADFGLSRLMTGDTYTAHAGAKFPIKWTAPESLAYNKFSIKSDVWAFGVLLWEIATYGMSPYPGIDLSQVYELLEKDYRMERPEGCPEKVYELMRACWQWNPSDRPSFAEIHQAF
Assay: Test for activity against c-Abl protein tyrosine kinase (filter binding assay)
Assay type: biochemical
Method: Test for activity against c-Abl protein tyrosine kinase. The test is conducted as a filter binding assay as follows: The His-tagged kinase domain of c-Abl is cloned and expressed in the baculovirus/Sf9 system as described by Bhat et al., J. Biol. Chem. 272, 16170-5 (1997). A protein of 37 kD (c-Abl kinase) is purified by a two-step procedure over a cobalt metal chelate column followed by an anion exchange column with a yield of 1-2 mg/L of Sf9 cells. The purity of the c-Abl kinase is >90% as judged by SDS-PAGE after Coomassie blue staining. The assay contains: c-Abl kinase (50 ng), 20 mM Tris.HCl, pH 7.5, 10 mM MgCl2, 10 μM Na3VO4, 1 mM DTT and 0.06 μCi/assay [γ^33 P]-ATP (5 μM ATP) using 30 μg/mL poly-Ala,Glu,Lys,Tyr-6:2:5:1 (Poly-AEKY, Sigma P1152) in the presence of 1% DMSO, total volume of 30 μL. Reactions are terminated by adding 10 μL of 250 mM EDTA, and 30 μL of the reaction mixture is transferred onto Immobilon-PVDF membrane (Millipore, Bedford, Mass., USA) previously soaked for 5 min with methanol, rinsed with water, then soaked for 5 min with 0.5% H3PO4 and mounted on vacuum manifold with disconnected vacuum source. After spotting all samples, vacuum is connected and each well rinsed with 200 μL 0.5% H3PO4. Membranes are removed and washed on a shaker with 0.5% H3PO4 (4 times) and once with ethanol. Membranes are counted after drying at ambient temperature, mounting in Packard TopCount 96-well frame, and addition of 10 μL/well of Microscint™ (Packard).

Row | Compound | IC50 [nM]
1 | CN(C)c1ncnc2[nH]c(-c3ccc(C(C)(C)O)cc3)cc12 [Example 34, 2-[4-(4-Dimethylamino-7H-pyrrolo[2,3-d]pyrimidin-6-yl)-phenyl]-propan-2-ol] | 21
2 | CCCN(C)c1ncnc2[nH]c(-c3ccc(CN4CCN(C)CC4)cc3)cc12 [Example 19, Methyl-{6-[4-(4-methyl-piperazin-1-ylmethyl)-phenyl]-7H-pyrrolo[2,3-d]pyrimidin-4-yl}-propyl-amine] | 11
3 | CN(C)c1ncnc2[nH]c(-c3ccc(Cn4ccnc4)cc3)cc12 [Example 24, [6-(4-Imidazol-1-ylmethyl-phenyl)-7H-pyrrolo[2,3-d]pyrimidin-4-yl]-dimethylamine] | 11
4 | CN(C)c1ncnc2[nH]c(-c3ccc(Cc4ccc[nH]4)cc3)cc12 [Example 25, Dimethyl-{6-[4-(1H-pyrrol-2-ylmethyl)-phenyl]-7H-pyrrolo[2,3-d]pyrimidin-4-yl}-amine] | 9
5 | CN1CCN(C(=O)c2ccc(-c3cc4c(N(C)C)ncnc4[nH]3)cc2)CC1 [Example 3, [4-(4-Dimethylamino-7H-pyrrolo[2,3-d]pyrimidin-6-yl)-phenyl]-(4-methyl-piperazin-1-yl)-methanone] | 19
6 | CN1CCN(Cc2ccc(-c3cc4c(N(C)C)ncnc4[nH]3)cc2)CC1 [Example 4, Dimethyl-{6-[4-(4-methyl-piperazin-1-ylmethyl)-phenyl]-7H-pyrrolo[2,3-d]pyrimidin-4-yl}-amine] | 32
7 | CN(C)c1ncnc2[nH]c(-c3ccc(C(=O)NCCCN4CCOCC4)cc3)cc12 [Example 7, 4-(4-Dimethylamino-7H-pyrrolo[2,3-d]pyrimidin-6-yl)-N-(3-morpholin-4-yl-propyl)-benzamide] | 25
8 | CCN(CC)CCCNC(=O)c1ccc(-c2cc3c(N(C)C)ncnc3[nH]2)cc1 [Example 5, N-(3-Diethylamino-propyl)-4-(4-dimethylamino-7H-pyrrolo[2,3-d]pyrimidin-6-yl)-benzamide] | 21
9 | CCCNc1ncnc2[nH]c(-c3ccc(C(=O)N4CCN(C)CC4)cc3)cc12 [Example 17, (4-Methyl-piperazin-1-yl)-[4-(4-propylamino-7H-pyrrolo[2,3-d]pyrimidin-6-yl)-phenyl]-methanone] | 5
10 | [4-(4-Methylamino-7H-pyrrolo[2,3-d]pyrimidin-6-yl)-phenyl]-morpholin-4-yl-methanone [Example 2] | 35
11 | CNc1ncnc2[nH]c(-c3ccc(C(=O)N4CCN(C)CC4)cc3)cc12 [Example 12, [4-(4-Methylamino-7H-pyrrolo[2,3-d]pyrimidin-6-yl)-phenyl]-(4-methyl-piperazin-1-yl)-methanone] | 4
12 | CNc1ncnc2[nH]c(-c3ccc(C(C)(C)O)cc3)cc12 [Example 35, 2-[4-(4-Methylamino-7H-pyrrolo[2,3-d]pyrimidin-6-yl)-phenyl]-propan-2-ol] | 10
13 | CN1CCN(C(=O)c2ccc(-c3cc4c(NCCCO)ncnc4[nH]3)cc2)CC1 [Example 15, {4-[4-(3-Hydroxy-propylamino)-7H-pyrrolo[2,3-d]pyrimidin-6-yl]-phenyl}-(4-methyl-piperazin-1-yl)-methanone] | 14
14 | CCCNc1ncnc2[nH]c(-c3ccc(CN4CCN(C)CC4)cc3)cc12 [Example 18, {6-[4-(4-Methyl-piperazin-1-ylmethyl)-phenyl]-7H-pyrrolo[2,3-d]pyrimidin-4-yl}-propyl-amine] | 6
15 | CNc1ncnc2[nH]c(-c3ccc(CN4CCN(C)CC4)cc3)cc12 [Example 16, Methyl-{6-[4-(4-methyl-piperazin-1-ylmethyl)-phenyl]-7H-pyrrolo[2,3-d]pyrimidin-4-yl}-amine] | 11
16 | CN(C)c1ncnc2[nH]c(-c3ccc(Cn4cnnn4)cc3)cc12 [Example 27, Dimethyl-[6-(4-tetrazol-1-ylmethyl-phenyl)-7H-pyrrolo[2,3-d]pyrimidin-4-yl]-amine] | 10
17 | CN(C)c1ncnc2[nH]c(-c3ccc(C(=O)N4CCOCC4)cc3)cc12 [Example 6, [4-(4-Dimethylamino-7H-pyrrolo[2,3-d]pyrimidin-6-yl)-phenyl]-morpholin-4-yl-methanone] | 2.6
18 | CCC(O)(CC)c1ccc(-c2cc3c(NCCCn4cccc4)ncnc3[nH]2)cc1 [Example 33, 3-{4-[4-(3-Pyrrol-1-yl-propylamino)-7H-pyrrolo[2,3-d]pyrimidin-6-yl]-phenyl}-pentan-3-ol] | 130
